The record followed here is US20110236330A1, “Skin Whitening” (priority 2008, published 2011).

Data set [1] in a line: Stability assay (visual coloration of solutions on storage). The class given is physicochemical. More on the design: key to Coloration: —: no coloration; +: moderate coloration; ++: strong coloration. As to conditions: for Coloration: room temperature, aqueous buffer:ethanol 1:1, away from day light; for Stability in protic solution: up to 120 days of incubation. As for the experimental part: 5-hydroxy-L-tryptophan, 6-fluoro-DL-tryptophan, 4-methyl-DL-tryptophan were dissolved at 1 or 10 mg/ml in a solution aqueous buffer at ph 5.5 and pH 7 (citric acid 0.1 M, Na2HPO4 0.2 M):ethanol 1:1 vol:vol. The solutions are kept away from day light and stored at room temperature. After 30, 60 and 120 days, the coloration of the solutions are visually assessed.

The test system of data set [2] is Melanocytes (B16 cell line). In words: Melanogenesis inhibition assay (melanin level and cellular protein level). The class given is cell-based. Conditions: 3 days incubation; for Protein level: cellular proteins (Bradford) as number of viable cells; for Melanin level: optical density at 475 nm. As for the experimental part: Melanocytes (B16 cell line) are inoculated in standard medium of cell culture with fetal calf serum (FCS). After an incubation of 3 days at 37° C. and CO2=5%, growth medium is exchanged for standard medium with a range of concentrations for each compound to be tested and a control without ingredient. After an incubation of 3 days, the level of melanin is measured by recording the optical density at 475 nm. After washing the cells by a balanced salt, and homogenization in a solution of 0.1 M NaOH, the number of viable cells is determined by the level of cellular proteins (Bradford's method).
The results are expressed in % against control (cell culture medium without compound) as a mean on 2 to 3 assays, each in triplicate.

As for `Cc1cccc2[nH]cc(CC(N)C(=O)O)c12` (racemic) [4-Methyl-DL-Tryptophan], the Coloration result in data set [1] (pH 5.5, 30 days) is on record as “—”; in data set [1] (pH 5.5, 60 days), “—”; in data set [1] (pH 5.5, 120 days), “—”; in data set [1] (pH 7.0, 30 days) it was “—”; in data set [1] (pH 7.0, 60 days), “—”; in data set [1] (pH 7.0, 120 days) it was “—”. In addition, the “Stability in protic solution” value in data set [1] (pH 5.5 and 7) is on record as “high stability”. For the same compound, the Protein level in data set [2] (dose 0.001 % (w/v)) came to 97 %/control; in data set [2] (dose 0.003 % (w/v)) it was 100 %/control. The figures for the Melanin level in data set [2] (dose 0.001 % (w/v)) and in data set [2] (dose 0.003 % (w/v)) were 56 %/control and 33 %/control, respectively.
Regarding `COc1ccc2[nH]cc(CC(N)C(=O)O)c2c1` (racemic) [5-Methoxy-DL-Tryptophan], the Protein level in data set [2] (dose 0.001 % (w/v)) was found to be 96 %/control; in data set [2] (dose 0.003 % (w/v)), 92 %/control. Further, the Melanin level worked out at 90 %/control in data set [2] (dose 0.001 % (w/v)) and 65 %/control in data set [2] (dose 0.003 % (w/v)).
In the case of `NC(Cc1c[nH]c2cc(F)ccc12)C(=O)O` (racemic) [6-Fluoro-DL-Tryptophan], the Coloration result in data set [1] (pH 5.5, 30 days) was “—”; in data set [1] (pH 5.5, 60 days), “—”; in data set [1] (pH 5.5, 120 days), “—”; in data set [1] (pH 7.0, 30 days), “—”; in data set [1] (pH 7.0, 60 days), “—”; in data set [1] (pH 7.0, 120 days) it was “—”. Further, the “Stability in protic solution” value in data set [1] (pH 5.5 and 7) is reported as “high stability”. Also, the Protein level in data set [2] (dose 0.001 % (w/v)) worked out at 106 %/control; in data set [2] (dose 0.003 % (w/v)), 108 %/control. Further, the Melanin level was 44 %/control in data set [2] (dose 0.001 % (w/v)) and 10 %/control in data set [2] (dose 0.003 % (w/v)).
For the compound `Cc1ccc2c(CC(N)C(=O)O)c[nH]c2c1` (racemic) [6-Methyl-DL-Tryptophan], the Protein level stood at 102 %/control in data set [2] (dose 0.003 % (w/v)) and 100 %/control in data set [2] (dose 0.01 % (w/v)). For the same compound, the Melanin level in data set [2] (dose 0.003 % (w/v)) was 81 %/control; in data set [2] (dose 0.01 % (w/v)), 39 %/control.
With `N[C@@H](Cc1c[nH]c2ccc(O)cc12)C(=O)O` [5-hydroxy-L-tryptophan, 5-Hydroxy-L-Tryptophan, reference compound], the “Coloration of the solution (in words)” value in data set [1] (at 30 days, protic solution, pH 5.5 and 7) is given as “visible dark-brown coloration”. For the same compound, the Coloration entry in data set [1] (pH 5.5, 30 days) is reported as “++”; in data set [1] (pH 5.5, 60 days), “++”; in data set [1] (pH 5.5, 120 days), “++”; in data set [1] (pH 7.0, 30 days) it was “++”; in data set [1] (pH 7.0, 60 days), “++”; in data set [1] (pH 7.0, 120 days) it was “++”.
